Laboratory results reported in patent publication US20130331381A1, “Treatment of Cancer WIth Dopamine Receptor Antagonists” (McMaster University, priority 2011, published 2013).
Counter-ions that a name gives are not always drawn. Like-named read-outs stand apart in the source and are kept apart here.

What was measured:
[1] = system: HL-60, OCI-AML2 and OCI-AML3; assay: Cytotoxicity of DR agonists and antagonists against AML cell lines; assay type: cell-based, human; conditions: CLOZ at higher concentrations; FIG. 6
Description: (§1) All three lines are leukemic cell lines. HL-60 was derived from promyelocytic AML whereas MV 4-11 and OCI-AML3 are representative of AML. Each compound was incubated with the cells for 72 h. The control was DMSO (ie the vehicle used for the compound) for 72 h. Each condition had three replicates.
A series of dopamine receptor agonists, D3-antagonists, DR1 & 5-antagonists and multi-receptor antagonists were tested for cytotoxicity against three AML cell lines HL-60, OCI-AML2 and OCI-AML3. Testing was performed as set out in Example 1.

AML-OCI2 and AML-OCI3 = assay: Volumetric cell counting of AML cell lines; assay type: cell-based, human; conditions: 72 h, serum-free conditions
Description: The number of AML-OCI2 and AML-OCI3 cells present after 72 h treatment with DR antagonists (FIG. 16b) and agonist (FIG. 16c-d) were counted by measuring the number of events within a fixed volume following the grating strategy defined by forward scatter and side scatter clustering, 7AAD− and Hoechst+.
(§2) Due to the bioavailability of dopamine in fetal bovine serum (FBS) (Little et al., 2002), serum-free conditions were employed to assess the role of DRs in AML. […] DR D2-family and D1-family exert opposing actions on intracellular signaling leading to differential biological effects (Self et al., 1996).

[2] = system: neoplastic hPSCs (v1H9-Oct4-GFP); assay: Flow cytometry of Oct4 in neoplastic hPSCs; assay type: cell-based, human; conditions: FIG. 10b
primary AML cells = assay: Methylcellulose blast-CFU assay, primary AML cells; assay type: cell-based, human; conditions: for AML-blast CFU potential: salinomycin at 1 μM and 10 μM, 24 h treatment, 5 AML patient samples
Description: (§3) Normal HSCs and progenitors were sourced from either mobilized peripheral blood or umbilical cord blood of health patients. Primary AML cells were taken from patients diagnosed with AML. Both normal HSCs and primary AML cells were cultured under standard in vitro methocellulose assay conditions (see http://www.stemcell.com/en/Products/All-Products/MethoCult-H4434-Classic.aspx as well as Clinton Campbell et al. The human stem cell hierarchy is defined by a functional dependence on Mcl-1 for self-renewal capacity. Blood 116 (9) 1433-1442 (Jun. 4, 2010), hereby incorporated by reference) for at least 14 days before the number of colonies were recorded.
(§4) AML patient blasts were cultured in IMDM supplemented with 5% heated inactivated FBS (HyClone), 5 ng/mL IL3 (R&D systems), 5×10^−5 M β-mercaptoethanol (Sigma) and BIT (StemCell Technologies). HSC media contained IMDM supplemented with 1% BSA (Sigma), 100 ng/mL SCF (R&D systems), 100 ng/mL Flt-3L (R&D systems) and 20 ng/mL TPO (R&D systems). Patient HSPC and AML samples were treated with compound or DMSO-vehicle (0.1%) for 24 h prior to CFU plating or xenotransplantation studies.
(§5) AML patient or CB lin− cells were cultured 24 hours in the presence of compound or DMSO-vehicle (0.1%) control. AML cells were plated at 50 000 cells/mL in Methocult GF H4434 (Stem Cell Technologies). CB lin− cells were plated at 1000 cells/mL in Methocult GF H4434 (Stem Cell Technologies). Colonies were scored after 14 days of culture using standard morphological criteria.

v1H9-Oct4-GFP cells = assay: Chemical screen for differentiation of neoplastic hPSC (GFP and Hoechst); assay type: cell-based; conditions: Homo sapiens; for activity at 10 µM: 72 h, read-out: Hoechst % RA (residual activity)
Description: Chemical screens involved v1H9-Oct4-GFP cells seeded at 5,000 cells per well in mouse embryonic fibroblast conditioned media (MEFCM) supplemented with 8 ng/ml bFGF. 24 hours later the media was exchanged for MEFCM with compounds at 10 μM and 0.1% DMSO, 0.1% DMSO (−BMP4) or 100 ng/ml of BMP4 and 0.1% DMSO (+BMP4) for 48 hours before being exchanged with fresh media with compound for a further 24 h (total compound treatment time 72 h) prior to being fixed and prepared for automated imaging and plate reader analysis. Confluent H9 & fibroblast-derived iPSC were seeded at 10,000 cells per well in MEFCM supplemented with 8 ng/ml bFGF. 24 hours later the cells were treated with compounds at 10 μM and 0.1% DMSO, 0.1% DMSO (−BMP4) or 100 ng/ml of BMP4 and 0.1% DMSO (+BMP4). Fresh MEFCM supplemented with compounds was exchanged daily for 5 days. On day 5, hPSC's were fixed and prepared for automated imaging and plate reader analysis. See supplementary experimental procedures for further details.
Cells were fixed in 2% paraformaldehyde and stained with 10 μg/mL Hoechst 33342 (Invitrogen) with a Combi Multidrop Dispenser (Thermo). For experiments that involved Oct4 immunocytochemistry, a monoclonal antibody for Oct4 (BD) was used along with an Alexa-Fluor-647 secondary (Invitrogen). Immunocytochemical staining was performed by a Janus automated liquid handler (Perkin Elmer). Images were acquired at 10×N.A with an Arrayscan HCS VTI Reader (Cellomics) by means of epi-fluorescence illumination and standard filter sets.
Image analysis was performed using custom scripts in Acapella software (Perkin Elmer). Nuclear objects were segmented from the Hoechst signal. For neoplastic cell lines, object intensity analysis was performed on GFP positive cells only. For normal cell lines, the fraction of Alexa-Fluor-647-positive cells was quantified. Images and well-level data were stored and analysed in a Columbus Database (Perkin Elmer) and further data analysis, compounds registration and hit identification in ActivityBase (IDBS).
These Collections have been previously scrutinized in numerous other mammalian cell lines (Diallo et al., 2010; Shoemaker, 2006).

AML LSCs = assay: Xenotransplantation of compound-treated AML cells; assay type: in vivo, human; conditions: AML cells treated at 10 μM, NSG mice
Description: NOD.Cg-Prkdc^scid II2rg^tm1Wjl/SzJ adult mice (NSG) were sub-lethally irradiated with 315 rads 24 hours prior transplantation. 0.8−1.0×10^7 AML MNCs or 1.5−1.8×10^5 CB lin− hematopoietic cells treated with compound or DMSO-vehicle for 24 h were injected via tail vein (IV). After 6-10 weeks, animals were culled, and the BM and spleen were analyzed for the presence of human cells by flow cytometry (LSRII, BD) and data was analyzed using FlowJo software (Tree Star Inc). For secondary HSPC transplants, equal number of engrafted human cells from CB lin− transplants were injected IV in adult irradiated NSG mice as described for primary transplants.

[3] = system: normal HSCs and progenitors (CB lin-)
Description: as §3, §4, §5

patient AML cells = assay: CD11b granulocytic maturation in patient AML cells; assay type: cell-based, human; conditions: 10 μM, up to 96 hours
neoplastic hPSCs = assay: TaqMan Low-Density Array-qPCR of differentiation genes; assay type: cell-based, human; conditions: thioridazine-treated neoplastic hPSCs
Description: Cells in specific conditions were collected and RNA was extracted by using RNeasy kit (Qiagen), complementary DNA (cDNA) generation by using SuperScript III® cDNA synthesis kit (Invitrogen), pre-amplification and TaqMan® array reaction (Applied Biosystems) were performed according to manufacturer's instructions. The gene expression profile for each treated cell population was analyzed using TaqMan® Stem Cell Pluripotency Array Card on ViiA 7 Real-Time PCR System (Applied Biosystems). Each reaction sample was dispensed into loading wells on the array card and centrifuged twice at 336×g for 1 min each time, sealed, and placed in the thermal cycler. The following cycling conditions were used for all array card applications: 45° C. for 10 min, 94° C. for 10 min, and 40 cycles of 94° C. for 30 s followed by 60° C. for min. Array data were normalized to 18S RNA and GAPDH and comparisons were performed using data analysis 2.0 software (Applied Biosystems).

[4] = system: normal HSCs and progenitors (CB lin-); assay: Methylcellulose colony forming assay, normal HSCs / HSPCs; conditions: 10 μM, at least 14 days; DMSO control about 100
Description: as §3, §4, §5

[5] = system: patient AML samples, DR+ and DR- subfractions; assay: Blast-CFU content of DR+ and DR- sorted patient AML samples; assay type: cell-based, human; conditions: 24 h treatment
Excerpt: as §2

[6] = system: HL-60, MV4-11 and OCI-AML3; assay: Cytotoxicity to leukemic cell lines (normalized cell number, 72 h); assay type: cell-based, human; conditions: for normalized cell number / toxicity: 10 μM
Description: as §1
The dopamine receptor antagonist and phenothiazine-related compound chlorpromazine was also investigated for effects on the AML cell lines HL-60, MV4-11 and OCI-AML3. Testing was performed as set out in Example 1.

[7] = system: CD14+ cells in primary AML; assay: Frequency of CD14+ cells in primary AML by flow cytometry; assay type: cell-based, human; conditions: 10 μM, 72 h; control 100%

SMILES: CN1CCN(C2=Nc3cc(Cl)ccc3Nc3ccccc32)CC1 [clozapine, Clozapine]
- cytotoxicity of AML cell lines [1]: significant effect

SMILES: Oc1cc2c(cc1O)[C@@H](c1ccccc1)CNCC2 [SKF38393, (R)-(+)-SKF-38393 hydrochloride]
- number of AML cells (AML-OCI2 and AML-OCI3): significant reduction

SMILES: OC(c1cc(C(F)(F)F)nc2c(C(F)(F)F)cccc12)C1CCCCN1 (stereo not shown) [mefloquine]
- cell number, neoplastic hPSCs [2]: reductions
- levels of Oct4 in neoplastic hPSCs [2]: reductions
- AML-blast CFU potential (primary AML cells): reduced
- activity at 10 µM (v1H9-Oct4-GFP cells; 10 μM): > 30%
- EC50 (v1H9-Oct4-GFP cells; dose response, FIG. 9g, read-out: EC50, reduction in GFP intensity): < 10 µM
- AML LSC capacity (CD45+ CD33+ blast engraftment) (AML LSCs): ineffective
- HSPC CFU potential [3]: little effect

SMILES: CC[C@@H](C(=O)[C@@H](C)[C@@H](O)[C@H](C)[C@@H]1O[C@@H]([C@@H](CC)C(=O)O)CC[C@@H]1C)[C@H]1O[C@]2(C=C[C@@H](O)[C@]3(CC[C@@](C)([C@H]4CC[C@](O)(CC)[C@H](C)O4)O3)O2)[C@H](C)C[C@@H]1C [salinomycin]
- AML-blast CFU potential (primary AML cells): reduced
- HSPC CFU potential [3]: reduced

SMILES: Cn1cnc([N+](=O)[O-])c1Sc1ncnc2nc[nH]c12 [azathioprine]
- activity at 10 µM (v1H9-Oct4-GFP cells; 10 μM): > 30%

SMILES: CNC1CC(c2ccc(Cl)c(Cl)c2)c2ccccc21 (stereo not shown) [indatraline]
- activity at 10 µM (v1H9-Oct4-GFP cells): > 30%

SMILES: CSc1ccc2c(c1)N(CCC1CCCCN1C)c1ccccc1S2 (racemic) [thioridazine, 10-{2-[(RS)-1-Methylpiperidin-2-yl]ethyl}-2-methylsulfanylphenothiazine]
- cytotoxicity of AML cell lines [1]: significant effect
- cell number, neoplastic hPSCs [2]: reductions
- levels of Oct4 in neoplastic hPSCs [2]: reductions
- frequency of CD11b granulocytic AML-blast cells (patient AML cells): marked increase
- number of CFU colonies, AML cells (primary AML cells; 10 μM, at least 14 days, control about 22): 1.6 blast colonies
- AML-blast CFU potential (primary AML cells): reduced
- upregulated differentiation-associated genes (neoplastic hPSCs): 21 of 50
- colony forming potential of normal HSCs, total colonies [4]: about 66 total colonies
- activity at 10 µM (v1H9-Oct4-GFP cells; 10 μM): > 30%
- blast-CFU generation, DR+ subfraction [5]: reduction
- blast-CFU generation, DR- subfraction [5]: no reduction
- AML LSC capacity (CD45+ CD33+ blast engraftment) (AML LSCs): significantly reduce
- HSPC CFU potential [3]: little effect
- normalized cell number ([6]; 0.1 μM and 1 μM): little effect
- normalized cell number / toxicity [6]: almost zero
- normalized frequency of CD14+ cells [7]: 20%
- number of AML cells (AML-OCI2 and AML-OCI3): reduced

SMILES: Br.CCCN(CCC)[C@@H]1CCc2ccc(O)cc2C1 [70H-DPAT, R(+)-7-Hydroxy-DPAT hydrobromide]
- number of AML cells (AML-OCI2 and AML-OCI3): increased

SMILES: CN(C)CCCN1c2ccccc2Sc2ccc(Cl)cc21 [chlorpromazine, Chlorpromazine hydrochloride]
- cytotoxicity of AML cell lines [1]: significant effect
- normalized cell number / toxicity [6]: toxic
- number of AML cells (AML-OCI2 and AML-OCI3): reduced
